Laboratory results from patent US10696692B2, “Amido-benzyl sulfone and sulfoxide derivates” (Forma TM, LLC, priority 2012, dated 2020).
Like-named read-outs stand apart in the source and are kept apart here.

Key:
[1] = biological target: NAMPT (Homo sapiens (Human), UniProt P43490); test: Assay 1: Biochemical Inhibition Assay (NAMPT enzymatic reaction, NMN quantified by mass spectrometry); details: read-out: Biochemical (IC50);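 further: recombinant His-tagged human NAMPT preincubated with compound 15 min, then reacted 30 min at rt with 1 µM NAM, 100 µM PRPP, 2.5 mM ATP, NMN product read by RapidFire MS, normalized to L-Cystathionine internal standard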
NAMPT, sequence (P43490 whole entry): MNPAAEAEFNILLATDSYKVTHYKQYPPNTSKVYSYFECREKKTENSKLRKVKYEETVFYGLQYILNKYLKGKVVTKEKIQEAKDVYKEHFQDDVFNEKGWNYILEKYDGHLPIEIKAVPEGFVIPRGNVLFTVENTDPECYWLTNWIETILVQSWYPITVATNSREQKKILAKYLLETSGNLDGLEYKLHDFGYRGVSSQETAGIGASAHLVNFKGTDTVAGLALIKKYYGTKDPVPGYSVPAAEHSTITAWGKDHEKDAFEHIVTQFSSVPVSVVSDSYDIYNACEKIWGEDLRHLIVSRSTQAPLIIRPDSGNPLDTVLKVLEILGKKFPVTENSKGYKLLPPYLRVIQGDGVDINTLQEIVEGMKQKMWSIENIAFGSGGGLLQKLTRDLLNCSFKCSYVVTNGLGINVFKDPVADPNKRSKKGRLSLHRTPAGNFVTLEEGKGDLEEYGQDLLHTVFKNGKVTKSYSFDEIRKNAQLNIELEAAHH

[2] = system: A2780 cells; test: Assay 2: In-Vitro Cell Proliferation Assay (A2780 cells, SRB readout, 72 hours); format: cell-based; details: A2780 cells, 72 hours, SRB, read-out: Cell Proliferation (IC50);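 further: viable cells counted via sulforhodamine B staining, absorbance at 570 nm, after 72 h exposure at 37 °C, DMSO 0.1% as control, media-only background subtracted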

CC(C)N1CCC([S+]([O-])c2ccc(CNC(=O)N3Cc4ccncc4C3)cc2)CC1 (centres unmarked) [Example 363, N-[[4-[(1-isopropyl-4-piperidyl)sulfinyl]phenyl]methyl]-1,3-dihydropyrrolo[3,4-c]pyridine-2-carboxamide]
IC50 [1]: 53.7 nM
IC50 ([2]; Homo sapiens, A2780, 72 h): 45.6 nM

O=C(NCc1ccc([S+]([O-])C2CCN(CC(F)(F)F)CC2)cc1)c1ccc2nccn2c1 (centres unmarked) [Example 364, N-[[4-[[1-(2,2,2-tnfluoroethyl)-4-piperidyl]sulfinyl]phenyl]methyl]imidazo[1,2-a]pyridine-6-carboxamide]
IC50 [1]: 2.93 nM
IC50 ([2]; Homo sapiens, A2780, 72 h): 3.51 nM

O=C(NCc1ccc([S+]([O-])C2CCN(C3CCOCC3)CC2)cc1)N1Cc2ccncc2C1 (centres unmarked) [Example 365, N-[[4-[(1-tetrahydropyran-4-yl-4-piperidyl)sulfinyl]phenyl]methyl]-1,3-dihydropyrrolo[3,4-c]pyridine-2-carboxamide]
IC50 [1]: 2.02 nM
IC50 ([2]; Homo sapiens, A2780, 72 h): 20 nM

CC(C)N1CCC([S+]([O-])c2ccc(CNC(=O)c3cnc4[nH]ncc4c3)cc2)CC1 (centres unmarked) [Example 366, N-[[4-[(1-isopropyl-4-piperidyl)sulfinyl]phenyl]methyl]-1H-pyrazolo[3,4-b]pyridine-5-carboxamide]
IC50 [1]: 29 nM
IC50 ([2]; Homo sapiens, A2780, 72 h): 77.6 nM

O=C(NCc1ccc([S+]([O-])C2CCN(CC(F)(F)F)CC2)cc1)c1cnc2[nH]ncc2c1 (centres unmarked) [Example 367, N-[[4-[[1-(2,2,2-trifluoroethyl)-4-piperidyl)sulfinyl]phenyl]methyl]-1H-pyrazolo[3,4-b]pyridine-5-carboxamide]
IC50 [1]: 88.1 nM
IC50 ([2]; Homo sapiens, A2780, 72 h): 15 nM

CN1CCC([S+]([O-])c2ccc(CNC(=O)c3ccc4nccn4c3)cc2)CC1 (centres unmarked) [Example 371, N-[[4-[(1-methyl-4-piperidyl)sulfinyl]phenyl]methyl]imidazo[1,2-a]pyridine-6-carboxamide]
IC50 [1]: 38 nM
IC50 ([2]; Homo sapiens, A2780, 72 h): 12.4 nM

CN1CCC([S+]([O-])c2ccc(CNC(=O)N3Cc4ccncc4C3)cc2)CC1 (centres unmarked) [Example 372, N-[[4-[(1-methyl-4-piperidyl)sulfinyl]phenyl]methyl]-1,3-dihydropyrrolo[3,4-c]pyridine-2-carboxamide]
IC50 [1]: 57.6 nM
IC50 ([2]; Homo sapiens, A2780, 72 h): 61.2 nM

CCN1CCC([S+]([O-])c2ccc(CNC(=O)c3cnc4[nH]ncc4c3)cc2)CC1 (centres unmarked) [Example 373, N-[[4-[(1-ethyl-4-piperidyl)sulfinyl]phenyl]methyl]-1H-pyrazolo[3,4-b]pyridine-5-carboxamide]
IC50 [1]: 113 nM
IC50 ([2]; Homo sapiens, A2780, 72 h): 15.4 nM

CC(C)CN1CCC([S+]([O-])c2ccc(CNC(=O)N3Cc4ccncc4C3)cc2)CC1 (centres unmarked) [Example 374, N-[(4-[(1-isobutyl-4-piperidyl)sulfinyl]phenyl]methyl]-1,3-dihydropyrrolo[3,4-c]pyridine-2-carboxamide]
IC50 [1]: 15.2 nM
IC50 ([2]; Homo sapiens, A2780, 72 h): 2.83 nM

CCCN1CCC([S+]([O-])c2ccc(CNC(=O)c3ccc4nccn4c3)cc2)CC1 (centres unmarked) [Example 375, N-[[4-[(1-propyl-4-piperidyl)sulfinyl]phenyl]methyl)imidazo[1,2-a]pyridine-6-carboxamide]
IC50 [1]: 27.5 nM
IC50 ([2]; Homo sapiens, A2780, 72 h): 24.5 nM

O=C(NCc1ccc([S+]([O-])C2CCN(CC(F)(F)F)CC2)cc1)N1Cc2ccncc2C1 (centres unmarked) [Example 376, N-[[4-[[1-(2,2,2-tnfluoroethyl)-4-piperidyl]sulfinyl]phenyl]methyl]-1,3-dihydropyrrolo[3,4-c]pyridine-2-carboxamide]
IC50 [1]: 5.82 nM
IC50 ([2]; Homo sapiens, A2780, 72 h): 8.54 nM

CCCN1CCC([S+]([O-])c2ccc(CNC(=O)N3Cc4ccncc4C3)cc2)CC1 (centres unmarked) [Example 377, N-[[4-[(1-propyl-4-piperidyl)sulfinyl]phenyl]methyl]-1,3-dihydropyrrolo[3,4-c]pyridine-2-carboxamide]
IC50 [1]: 24.9 nM
IC50 ([2]; Homo sapiens, A2780, 72 h): 24.1 nM

CCCN1CCC([S+]([O-])c2ccc(CNC(=O)c3cnc4[nH]ncc4c3)cc2)CC1 (centres unmarked) [Example 378, N-[[4-[(1-propyl-4-piperidyl)sulfinyl]phenyl]methyl)-1H-pyrazolo[3,4-b]pyridine-5-carboxamide]
IC50 [1]: 594 nM
IC50 ([2]; Homo sapiens, A2780, 72 h): 143 nM

CN1CCC([S+]([O-])c2ccc(CNC(=O)c3cc4ccncc4o3)cc2)CC1 (centres unmarked) [Example 379, N-[[4-[(1-methyl-4-piperidyl)sulfinyl]phenyl]methyl]furo[2,3-c]pyridine-2-carboxamide]
IC50 [1]: 114 nM
IC50 ([2]; Homo sapiens, A2780, 72 h): 41.4 nM

CCN1CCC([S+]([O-])c2ccc(CNC(=O)c3cc4ccncc4o3)cc2)CC1 (centres unmarked) [Example 380, N-[[4-[(1-ethyl-4-piperidyl)sulfinyl]phenyl]methyl]furo[2,3-c]pyridine-2-carboxamide]
IC50 [1]: 68.3 nM
IC50 ([2]; Homo sapiens, A2780, 72 h): 499 nM

O=C(NCc1ccc([S+]([O-])C2CCN(C3CCOCC3)CC2)cc1)c1cnc2[nH]ncc2c1 (centres unmarked) [Example 381, N-[[4-[(1-tetrahydropyran-4-yl-4-piperidyl)sulfinyl]phenyl]methyl]-1H-pyrazolo[3,4-b]pyridine-5-carboxamide]
IC50 [1]: 290 nM
IC50 ([2]; Homo sapiens, A2780, 72 h): 201 nM

CCCN1CCC([S+]([O-])c2ccc(CNC(=O)c3cc4ccncc4o3)cc2)CC1 (centres unmarked) [Example 382, N-[[4-[(1-propyl-4-piperidyl)sulfinyl]phenyl]methyl]furo[2,3-c]pyridine-2-carboxamide]
IC50 [1]: 2000 nM
IC50 [2]: 2000 nM

CCCN1CCC([S@+]([O-])c2ccc(CNC(=O)c3cc4ccncc4o3)cc2)CC1 [Example 383, N-[[4-[(S)-(1-propyl-4-piperidyl)sulfinyl]phenyl]methyl]furo[2,3-c]pyridine-2-carboxamide]
IC50 [1]: 35.7 nM
IC50 [2]: 6.46 nM

O=C(NCc1ccc([S+]([O-])C2CCN(C3CCOCC3)CC2)cc1)c1ccc2nccn2c1 (centres unmarked) [Example 384, N-[[4-[(1-tetrahydropyran-4-yl-4-piperidyl)sulfinyl]phenyl]methyl]imidazo[1,2-a] pyridine-6-carboxamide]
IC50 [1]: 36.2 nM
IC50 ([2]; Homo sapiens, A2780, 72 h): 39.1 nM

CCN1CCC([S+]([O-])c2ccc(CNC(=O)N3Cc4ccncc4C3)cc2)CC1 (centres unmarked) [Example 385, N-[[4-[(1-ethyl-4-piperidyl)sulfinyl]phenyl]methyl]-1,3-dihydropyrrolo[3,4-c]pyridine-2-carboxamide]
IC50 [1]: 30.2 nM
IC50 ([2]; Homo sapiens, A2780, 72 h): 56.7 nM

CC(C)N1CCC([S+]([O-])c2ccc(CNC(=O)c3cc4cnccc4[nH]3)cc2)CC1 (centres unmarked) [Example 386, N-[[4-[(1-isopropyl-4-piperidyl)sulfinyl]phenyl]methyl]-1H-pyrrolo[3,2-c]pyridine-2-carboxamide]
IC50 [1]: 60 nM
IC50 ([2]; Homo sapiens, A2780, 72 h): 70.6 nM

Imidazo[1,2-a]pyridine-6- carboxylic acid 4-[4- (tetrahydro-pyran-4-yl)- piperazine-1-sulfonyl]- benzylamide [Example 59]
IC50 [1]: 10.7 nM
IC50 [2]: 3 nM

cis-Imidazo[1,2- a]pyridine-6-carboxylic acid 4-[(3aR,6aS)- (tetrahydro-furo[3,4- c]pyrrol-5-yl)sulfonyl]- benzylamide [Example 71]
IC50 [1]: 16.7 nM
IC50 [2]: 6.4 nM

tert-butyl 2-[4-[(imidazo[1,2- a]pyridine-6- carbonylamino)methyl]phenyl] sulfonyl-2,9- diazaspiro[4.5]decane-9- carboxylate [Example 242]
IC50 [1]: 6.34 nM
IC50 [2]: 2.99 nM

tert-butyl 7-[4-[(imidazo[1,2- a]pyridine-6- carbonylamino)methyl]phenyl] sulfonyl-1,7- diazaspiro[4.4]nonane-1- carboxylate [Example 236]
IC50 [1]: 13.3 nM
IC50 [2]: 1.79 nM
